In patent publication US4826966A, “Radioiodinated branched carbohydrates” (The United States of America as represented by the United …, priority 1988, dated 1989):

Test: Distribution of radioactivity in tissues of female rats after intravenous administration
Assay type: in vivo
Conditions: for Distribution of radioactivity in brain / Distribution of radioactivity in thyroid: no unit in table; for Distribution of radioactivity in brain: b28 gives percent dose/g; for Distribution of radioactivity in thyroid: percent
Description: The distribution of radioactivity in tissues of female rats at 5 minutes, 15 minutes, 30 minutes and 60 minutes after intravenous administration of the iodinated compound is shown in the following table. The level of accumulation of radioactivity in the brain after injection of this agent was a significant 1.65 percent dose/g at 5 minutes but the blood levels were also high resulting in blood ratios of 1.6/1 at 5 minutes.

[1] = 1 h (head printed 1 HT/R), intravenous

- Distribution of radioactivity in brain (5 min, intravenous): 1.6525
- Distribution of radioactivity in thyroid (5 min, intravenous): 20.6441
- blood levels (5 minutes, intravenous, in words): high
- Distribution of radioactivity in thyroid (15 min, intravenous): 18.9149
- Distribution of radioactivity in thyroid (30 min, intravenous): 25.7085
- Distribution of radioactivity in brain [1]: 0.7237
- Distribution of radioactivity in thyroid [1]: 33.4920
- brain retention compared with the peak uptake at 5 minutes (60 minutes vs 5 minutes, intravenous): 50%
- accumulation of activity in the thyroid (60 minutes, intravenous): 33.5%
- retention in the brain (in words) (up to 60 minutes, intravenous): prolonged retention in the brain
Structure (SMILES): CO[C@@H]1O[C@H](COC(C)=O)[C@@H](OC(C)=O)[C@@H](OC(C)=O)[C@@H]1/C=C/[125I] [methyl-2-deoxy-2-(E)-[^125 I]-iodovinyl-2,4,6-O-triacetyl-β-D-altropyranoside]
- stability to in vivo deiodination (from thyroid accumulation at 60 minutes, in words): demonstrated the stability of this agent to in vivo deiodination
